In patent publication US20260130966A1, “NOVEL THERAPEUTICS FOR PARASITIC INFECTION” (UNIVERSITY OF SOUTH FLORIDA, priority 2022, published 2026):
pEC50, pIC50: −log10 of the molar value. Converted amounts (≈) assume the structure as drawn. “And” between values parts separate entries of the source, which are not always exact repeats. Equal values may be shown once. “Also recorded” adds a separate entry of the source. Read-outs that look alike come from different tables or passages of the source. Where a SMILES comes first, the peptide text is derived from it. [ ]: non-standard residue; d: D form. The star is where a group is joined. ξ: configuration not given here. Phe(Nα-CONH2) = NC(=O)N[C@@H](Cc1ccccc1)C(=O)*; NMeI = CC[C@H](C)[C@H](NC)C(=O)O; NMeξIle = CC[C@H](C)C(NC)C(=O)O; X1 = CN(/C=C\c1c[nH]c2ccccc12)*; NMeL = CN[C@@H](CC(C)C)C(=O)O; NMeV = CN[C@H](C(=O)O)C(C)C; NMeA = CN[C@@H](C)C(=O)O; For = O=C*

Assays:
[1] = system: ESKAPE panel of bacterial pathogens; assay: ESKAPE panel antibacterial screen; type: cell-based
[2] = system: J774.A1 macrophages; assay: Cytotoxicity screen against Leishmania host cell line; type: cell-based; conditions: toxicity to J774.A1 macrophages
Description: (§1) The Leishmania donovani infected macrophage assay and cytotoxicity screen were conducted as previously described.

[3] = system: HepG2; assay: MTT cytotoxicity, human liver HepG2 cells; type: cell-based
Description: (§2) The cytotoxicity of the metabolites to human liver cells and kidney cells was determined using an MTT based-In Vitro Toxicology Assay Kit (Sigma-Aldrich, St. Louis, MO, USA) following the manufacturing instructions. The human kidney HEK293T cells and the human liver HEPGZ cells were used for the evaluation in this study. Both cell samples were maintained and suspended in Dulbecco's Modified Eagle Medium (DMEM with 4.5 g/L glucose, L-glutamine and sodium pyruvate, Corning, Manassas, VA, USA) containing 10% fetal bovine serum (Thermo Scientific) and 1% penicillin/streptomycin at 37° C. under 5% CO2 atmosphere. The cells were plated on a 96-well plate with approximately 5×10^3-1×10^4 cells in each well, and incubated at 37° C. overnight. […] After that, the liquid in each well of the plate was removed carefully and thoroughly, then the cells in the wells were treated with 100 μL of DMSO, and incubated at 37° C. for 15 m. […] Bio Tek Instruments, Inc. Winooski VT). Cells treated with vancomycin, a common option for treating CDI in clinical settings, were also included in the MTT tests as a control. Cell survival and the IC50 were calculated according to the method used in a previous publication: Survival of cells (%)=Drug-treated group OD540/control group OD540×100.

[4] = system: C. difficile UK6; assay: C. difficile MIC screening; type: cell-based, Clostridium difficile
[5] = system: HEK293T; assay: MTT cytotoxicity, human kidney HEK293T cells; type: cell-based
Description: as §2

[6] = system: Leishmania donovani; assay: Leishmania donovani infected macrophage assay; type: cell-based
Description: as §1

[7] = system: murine J774 macrophage cells; assay: Cytotoxicity testing against murine J774 macrophage cells (CellTiter 96); type: cell-based
Description: The isolated compounds were each tested for cytotoxicity using mammalian J774A.1 cell lines (ATCC TIB-67™) in complete media; RPMI 1640 medium with phenol red containing L-glutamine and then supplemented with 10% fetal bovine serum (CM). Cells were seeded at 5×10^5 cell/mL and plated in a 96-well format with 100 μL/well fresh media on day 0 and were incubated overnight at 37° C., 5% CO2 for adherence. Following 24 h incubation, spent media was removed and 100 μL of fresh media with test compounds were serially diluted 1:2 with a starting concentration of 10 μg/mL was added to the cells and incubated for an additional 68 h before adding in 20 μL CellTiter 96® AQueous One Solution Cell Proliferation Assay reagent (Promega). Cells were incubated for an additional 4 h before reading absorbance (490) nm on the CLARIOstar plate reader.

[8] = system: P. falciparum 3D7; assay: microbe, parasite or virus in culture; type: cell-based, Plasmodium falciparum
Description: (§3) For parasite suspension, P. falciparum malaria strains were grown under normal conditions as previously described by Trager and Jensen with some modifications.” Briefly, parasites were suspended in RPMI 1640 supplemented with 0.23% sodium bicarbonate, […] hypoxanthine and 0.5% albumax (CM), 4% packed washed red blood cells by volume and incubated in a continuous gas incubator set to normal conditions (5% O2, 5% CO2, […]). Parasites were prepared for drug susceptibility assay by highly synchronizing schizonts 16 h before experiment start by using a 70% percoll method. Ring stage parasites were then resuspended in culture with fresh CM containing 2% hematocrit and 0.5% parasitemia.
(§4) Antimalaria activity was assessed against reference strains of NF54, 3D7 and Dd2 using an adaptation of the sensitivity assay of Desjardins et al. using SybrGreen fluorescence as an assessment of parasite growth.^32 NF54 original isolate was obtained from a patient living near Schiphol Airport, Amsterdam and its clonal isolate 3D7 are generally considered to be drug sensitive, though 3D7 does convey resistance to sulfadoxine. Dd2 derived from the parent W2, is multi-drug-resistant line originating from the Indochina III/CDC isolate, which contain point mutations in pfcrt as well as amplifications in pfmdr1 and GTP cyclohydrolase. Briefly, compounds were diluted to 10 μg/mL and serially diluted along a microtiter plate before adding in 100 μL/well of the parasite suspension. Parasite growth was compared to controls incubated at 37° C. and normal culture conditions (5% O2, 5% CO2, 90% N2) for 72 h. Plates were frozen and thawed before adding a final 1× concentration of SybrGreen in lysis buffer and read on the CLARIOstar fluorescence plate reader (Ex/Em 484-15/528-15) following a 45 min incubation at room temperature. Drug EC50 values were calculated by interpolation of the probit transformation of the log(dose)-response curve using the MARS software provided by BMG.

[9] = system: P. falciparum NF54; assay: microbe, parasite or virus in culture; type: cell-based, Plasmodium falciparum
Description: as §3, §4

[10] = system: P. falciparum Dd2; assay: microbe, parasite or virus in culture; type: cell-based, Plasmodium falciparum
Description: as §3, §4

[11] = system: Blood-Stage P. falciparum Strains; assay: Initial blood-stage screen against several P. falciparum strains; type: cell-based, Plasmodium falciparum
Description: as §3, §4

[12] = system: liver stage of Plasmodium falciparum; conditions: previous investigation; cited from earlier work
[13] = cytotoxicity, murine J774 macrophage cells, read-out: EC50

Row | Compound | EC50 (μg/mL) [7] [µg/mL] | pEC50 [7, 13] | pIC50 ([8]; 3D7) | pIC50 ([9]; NF54) | pIC50 ([10]; Dd2) | further results
1 | Cc1cc2c(c3c1[C@H](CO[N+](=O)[O-])OC3=O)CC(C)(C)C2 [Compound C4, alcyopterosin E] |  |  |  |  |  | activity against the ESKAPE panel [1]: inactive; pIC50 [2]: 4.21; CC50 [3]: 331 µM; activity against Clostridium difficile [4]: potent activity; CC50 [5]: 570 µM
2 | 4,12-Bis(acetyl)alcyopterosin O [Compound C8] |  |  |  |  |  | pIC50 [6]: 5.92
3 | Cc1cc2c(c3c1[C@@H](CO)OC3=O)CC(C)(C)C2 [Compound C3, alcyopterosin V] |  |  |  |  |  | activity against the ESKAPE panel [1]: inactive; pIC50 [2]: 3.96; CC50 [3]: 288 µM; activity against Clostridium difficile [4]: potent activity; MIC ([4]; C. difficile): 8.1 µM (≈ 2 µg/mL); CC50 [5]: 220 µM
4 | CNC(=O)[C@H](C(C)C)N(C)C(=O)[C@H](C(C)C)N(C)C(=O)[C@H](C(C)C)N(C)C(=O)[C@H](C)N(C)C(=O)[C@H](C)N(C)C(=O)[C@H](CC(C)C)N(C)C(=O)[C@H](C(C)C)N(C)C(=O)[C@H](Cc1ccccc1)NC=O [Compound P5, shagamide C] (For-F[NMeV][NMeL][NMeA][NMeA][NMeV][NMeV][NMeV]-NHMe) | >100 | < 4.00 | 5.60 | 5.43 | 5.97 | inhibition of strain 3D7 ([8]; blood stage, strain 3D7): 2.52 µg/mL
5 | CC(=O)O[C@@H]1[C@H](OC(C)=O)[C@H]([C@H](C)CCCC(C)C)[C@@]2(C)C[C@@H](OC(C)=O)[C@H]3[C@@H](C[C@@H](O)[C@H]4CC=CC(=O)[C@]34C)[C@H]12 [Compound C5, alcyosterone] |  |  |  |  |  | activity against the ESKAPE panel [1]: inactive; pIC50 ([6]; Macrophage): 5.82
6 | CC[C@H](C)[C@@H](C(=O)N(C)[C@@H](C)C(=O)N(C)[C@H](C(N)=O)C(C)C)N(C)C(=O)[C@H]([C@@H](C)CC)N(C)C(=O)[C@H](C)N(C)C(=O)[C@H](C(C)C)N(C)C(=O)[C@H](C)N(C)C(=O)[C@@H](NC(C)=O)C(C)C [Compound P8, shagamide F] (Ac-V[NMeA][NMeV][NMeA][NMeI][NMeI][NMeA][NMeV]-NH2) | >100 | < 4.00 | < 5.00 | < 5.00 | < 5.00 | blood-stage anti-malarial activity [11]: did not show significant activity
7 | CCCCCCCCCCCCCCCCOP(=O)([O-])OCC[N+](C)(C)C [miltefosine, reference compound] |  |  |  |  |  | pIC50 ([6]; Macrophage): 5.21
8 | CC[C@H](C)[C@@H](C(=O)NC)N(C)C(=O)[C@H](C)N(C)C(=O)[C@H](C(C)C)N(C)C(=O)[C@H](C(C)C)N(C)C(=O)[C@H](C)N(C)C(=O)[C@H](C(C)C)N(C)C(=O)[C@H](C(C)C)N(C)C(=O)[C@H](C)N(C)C(=O)[C@H](C)NC(C)=O [Compound P7, shagamide E] (Ac-A[NMeA][NMeV][NMeV][NMeA][NMeV][NMeV][NMeA][NMeI]-NHMe) | >100 | < 4.00 | < 5.00 | < 5.00 | < 5.00 | blood-stage anti-malarial activity [11]: did not show significant activity
9 | CC[C@H](C)[C@@H](C(=O)N(C)/C=C\c1c[nH]c2ccccc12)N(C)C(=O)[C@H](C(C)C)N(C)C(=O)[C@H](C(C)C)N(C)C(=O)[C@H](CC(C)C)N(C)C(=O)[C@@H]1CCCN1C(=O)[C@H](Cc1ccccc1)NC(=O)[C@H](Cc1ccccc1)NC(C)=O [Compound P2, friomaramide B] (Ac-FFP[NMeL][NMeV][NMeV][NMeI]-X1) | 26.7 (≈ 24.6 µM) |  | 5.06 | 5.41 | 5.48 | blood-stage anti-malarial activity [11]: modest activity; pEC50 [7]: 4.61
10 | CN[C@H](CC(C)C)C(=O)N[C@H]1C(=O)N[C@@H](CC(N)=O)C(=O)N[C@H]2C(=O)N[C@H]3C(=O)N[C@H](C(=O)N[C@H](C(=O)O)c4cc(O)cc(O)c4-c4cc3ccc4O)[C@H](O)c3ccc(c(Cl)c3)Oc3cc2cc(c3O[C@@H]2O[C@H](CO)[C@@H](O)[C@H](O)[C@H]2O[C@H]2C[C@](C)(N)[C@H](O)[C@H](C)O2)Oc2ccc(cc2Cl)[C@H]1O [Vancomycin, reference compound] |  |  |  |  |  | toxicity to host cells ([3]; HepG2, same concentrations alcyopterosins were assayed): non-toxic; MIC ([4]; Clostridioides difficile, UK6): 0.34 µM (≈ 0.493 µg/mL); toxicity to host cells ([5]; HEK293T, same concentrations alcyopterosins were assayed): non-toxic
11 | Cc1cc2c(c3c1[C@@H](CCl)OC3=O)CC(C)(C)[C@@H]2O [Compound C9, alcyopterosin L] |  |  |  |  |  | pIC50 [6]: 5.62
12 | CC[C@H](C)[C@@H](C(N)=O)N(C)C(=O)[C@H](C(C)C)N(C)C(=O)[C@H](CC(C)C)N(C)C(=O)[C@H](Cc1ccccc1)N(C)C(=O)[C@H](Cc1ccccc1)NC=O [Compound P3, shagamide A] | >100 | < 4.00 | 5.68 | 5.58 | 5.76 | activity against the 3D7 strain ([8]; blood stage, strain 3D7): comparable activity
13 | CCN(CC)CCCC(C)Nc1ccnc2cc(Cl)ccc12 (stereo not shown) [Chloroquine, reference compound] |  |  |  |  |  | EC50 ([7]; Mus musculus, J774): 16.3 µg/mL and 51 µM; pIC50 ([8]; Plasmodium falciparum, 3D7, read-out: IC50 Values against Blood-Stage P. falciparum Strains: 3D7): 7.52; pIC50 ([9]; Plasmodium falciparum, NF54, read-out: IC50 Values against Blood-Stage P. falciparum Strains: NF54): 7.52; pIC50 ([10]; Plasmodium falciparum, DD2, read-out: IC50 Values against Blood-Stage P. falciparum Strains: Dd2): 5.89
14 | CC[C@H](C)C(C(=O)N(C)[C@H](C(=O)NC)[C@@H](C)CC)N(C)C(=O)[C@H](C(C)C)N(C)C(=O)[C@H](C)N(C)C(=O)[C@H](C(C)C)N(C)C(=O)[C@H](C(C)C)N(C)C(=O)[C@@H](NC=O)C(C)C (stereo partly shown) [Compound P4, shagamide B] (For-V[NMeV][NMeV][NMeA][NMeV][NMeξIle][NMeI]-NHMe) | >100 | < 4.00 | < 5.00 | < 5.00 | 5.36 | blood-stage anti-malarial activity [11]: did not show significant activity; also recorded: inactive
15 | CNC(=O)[C@H](C(C)C)N(C)C(=O)[C@H](C(C)C)N(C)C(=O)[C@H](C(C)C)N(C)C(=O)[C@H](C)N(C)C(=O)[C@H](C)N(C)C(=O)[C@H](CC(C)C)N(C)C(=O)[C@H](C(C)C)N(C)C(=O)[C@H](Cc1ccccc1)NC(N)=O [Compound P6, shagamide D] ({Phe(Nα-CONH2)}-[NMeV][NMeL][NMeA][NMeA][NMeV][NMeV][NMeV]-NHMe) | >100 | < 4.00 | < 5.00 | 5.52 | 5.69 | activity against the 3D7 strain ([8]; blood stage, strain 3D7): inactive
16 | CC[C@H](C)[C@@H](C(=O)N(C)/C=C\c1c[nH]c2ccccc12)N(C)C(=O)[C@H]([C@@H](C)CC)N(C)C(=O)[C@H](C)N(C)C(=O)[C@H](C(C)C)N(C)C(=O)[C@H](Cc1ccccc1)NC(C)=O [Compound P1, friomaramide A] (Ac-F[NMeV][NMeA][NMeI][NMeI]-X1) |  |  |  |  |  | blocking of liver stage parasite development [12]: comparable to the known drug primaquine
17 | Cc1cc2c(c(C)c1CCO[N+](=O)[O-])CC(C)(C)C2=O [Compound C6, alcyopterosin C] |  |  |  |  |  | pIC50 [6]: 4.89
